Experimental data: patent US12370237B2, “Lipopeptides for use in treating liver diseases and cardiovascular diseases” (RUPRECHT-KARLS-UNIVERSITAET HEIDELBERG, priority 2012, dated 2025)

Columns and labels:
hNTCP = target: T1, hNTCP (Homo sapiens, UniProt Q14973); assay: MyrB^atto binding competition assay by FACS in HuH7^hNTCP cells; settings: 500 μM
T1 construct: host or cells: HuH7
T1 sequence (Q14973 1-349): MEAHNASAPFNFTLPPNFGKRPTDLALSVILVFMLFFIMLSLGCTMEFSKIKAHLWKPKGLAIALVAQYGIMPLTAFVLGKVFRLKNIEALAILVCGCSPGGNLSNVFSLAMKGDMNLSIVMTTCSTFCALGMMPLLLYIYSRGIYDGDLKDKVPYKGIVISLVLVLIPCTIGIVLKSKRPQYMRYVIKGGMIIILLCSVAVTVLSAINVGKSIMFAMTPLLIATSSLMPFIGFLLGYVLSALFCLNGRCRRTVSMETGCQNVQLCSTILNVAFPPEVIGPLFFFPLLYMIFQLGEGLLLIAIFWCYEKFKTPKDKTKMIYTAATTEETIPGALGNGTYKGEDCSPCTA
Description: Binding was quantified by FACS analysis.
(§1) Cells were washed (PBS/1% BSA), trypsinized, and suspended in Krebs-Henseleit-Buffer. Flow cytometry was performed on a FACS Canto II (BD Bioscience, Heidelberg, Germany); FlowJo v7.61 software (Treestar, Ashton, USA) was used for analysis. Compensation was performed using BD Compbeats (BD Bioscience, Heidelberg, Germany).

HBV = HBV infection of differentiated HepaRG and HuH7^hNTCP cells in presence of NTCP substrates (secreted HBeAg); type: cell-based; settings: for Reduction of HBV infection (HBeAg secretion): 5 μM; for Inhibition of HBV infection as shown by HBeAg secretion: 50 μM and 500 μM
mNtcp = target: T2, mNtcp (Mus musculus, UniProt O08705); assay: MyrB^atto binding to HepG2^mNtcp cells (FACS)
T2 construct: expressed in transfected cells; host or cells: HepG2
T2 sequence (O08705 1-362): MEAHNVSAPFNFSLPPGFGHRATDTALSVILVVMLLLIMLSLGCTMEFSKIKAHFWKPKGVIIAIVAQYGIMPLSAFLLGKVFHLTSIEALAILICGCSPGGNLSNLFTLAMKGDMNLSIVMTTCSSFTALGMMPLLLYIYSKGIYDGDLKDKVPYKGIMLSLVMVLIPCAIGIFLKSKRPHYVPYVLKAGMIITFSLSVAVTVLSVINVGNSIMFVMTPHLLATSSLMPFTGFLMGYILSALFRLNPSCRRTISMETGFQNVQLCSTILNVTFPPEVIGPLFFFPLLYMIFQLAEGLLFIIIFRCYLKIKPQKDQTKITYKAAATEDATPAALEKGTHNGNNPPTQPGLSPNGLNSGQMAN
Description: as §1
(§2) Taking advantage of the fluorescence of the ratNTCP-eGFP fusion, we confirmed co-localisation of the MyrB/rNtcp-complex in microvilli.

ratNTCP-eGFP = target: T3, ratNTCP-eGFP (Rattus norvegicus, UniProt P26435); assay: MyrB^atto binding to HepG2 ratNTCP-eGFP cells (confocal microscopy)
T3 construct: expressed in transfected cells; host or cells: HepG2
T3 sequence (P26435 1-362): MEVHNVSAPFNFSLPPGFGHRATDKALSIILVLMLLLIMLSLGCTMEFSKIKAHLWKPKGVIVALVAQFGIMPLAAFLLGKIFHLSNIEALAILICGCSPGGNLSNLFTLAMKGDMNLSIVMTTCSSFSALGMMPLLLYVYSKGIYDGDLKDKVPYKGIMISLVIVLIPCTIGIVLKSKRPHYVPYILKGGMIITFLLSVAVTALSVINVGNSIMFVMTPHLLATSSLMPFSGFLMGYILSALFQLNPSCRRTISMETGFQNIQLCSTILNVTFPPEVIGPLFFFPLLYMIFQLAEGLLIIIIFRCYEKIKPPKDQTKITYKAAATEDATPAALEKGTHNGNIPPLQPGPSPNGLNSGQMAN
Description: Note the co-localisation of hNTCP/MyrB^atto in microvilli.
Cells were washed again (3×PBS/2% BSA), fixed with PFA, washed with PBS/1 ug/ml Hoechst 3342 and mounted (FluoromountG). NTCP immune staining was achieved after permeabilisation (10 min/RT) with TritonX 100 using a α-SCL10A1/NTCP antibody (Sigma, Germany) diluted 1:750 in PBS/2% BSA (18 h at 4° C.). A polyclonal rabbit antiserum H863 was used for HBcAg-staining, a polyclonal rabbit antiserum for MRP-2 detection, patient-derived serum (M. Roggendorf, Essen) for HδAg. As secondary antibodies goat anti-rabbit or -human, labelled with either AlexaFluor488 or AlexaFluor546 (Invitrogen) was used. Actin staining was performed by the addition of atto633-labelled Phalloidin diluted 1:2000 (ATTO-Tec, Germany) to the second staining step. Images were taken on a Leica DM IRB or Leica SP2 confocal microscope (Leica, Germany), image analysis was performed using ImageJ.
as §2

| Interference with MyrB^atto (preS) binding (hNTCP) | Compound | Reduction of HBV infection (HBeAg secretion) (HBV) | Inhibition of HBV infection as shown by HBeAg secretion (HBV) | Binding to mNtcp-expressing cells (mNtcp) | Binding to rat NTCP-eGFP-expressing cells (ratNTCP-eGFP) |
| --- | --- | --- | --- | --- | --- |
| profoundly interfered with preS-binding | C[C@H](CCC(=O)NCCS(=O)(=O)O)[C@H]1CC[C@H]2[C@@H]3[C@H](O)C[C@@H]4C[C@H](O)CC[C@]4(C)[C@H]3CC[C@]12C [TCDC, Taurochenodeoxy-Cholate] | Marginal reduction | inhibited HBV-infection | – | – |
| – | MyrB^atto: atto-dye-labeled MyrB (atto488/atto565 NHS-ester coupled to lysine residues) | – | – | specific and competable binding | specific and competable binding |
| profoundly interfered with preS-binding | C[C@H](CCC(=O)NCCS(=O)(=O)O)[C@H]1CC[C@H]2[C@@H]3CC[C@@H]4C[C@H](O)CC[C@]4(C)[C@H]3C[C@H](O)[C@]12C [TDC, Taurodeoxycholate] | Marginal reduction | inhibited HBV-infection | – | – |

| Compound | Interference with MyrB^atto (preS) binding (hNTCP) | Reduction of HBV infection (HBeAg secretion) (HBV) | Inhibition of HBV infection as shown by HBeAg secretion (HBV) | Binding to mNtcp-expressing cells (mNtcp) | Binding to rat NTCP-eGFP-expressing cells (ratNTCP-eGFP) |
| --- | --- | --- | --- | --- | --- |
| C[C@H](CCC(=O)NCCS(=O)(=O)O)[C@H]1CC[C@H]2[C@@H]3[C@H](O)C[C@@H]4C[C@H](O)CC[C@]4(C)[C@H]3C[C@H](O)[C@]12C [TC, Taurocholate] | profoundly interfered with preS-binding | – | – | – | – |
